Data from US20230159484A1, “FLUORESCENT DYES HAVING HIGH STOKES SHIFT, ON THE BASIS OF BRIDGED BENZOPYRYLIUM SALTS” (DYOMICS GmbH, priority 2020, published 2023).

Legend:
Assay type in all cases: physicochemical
[1] = Fluorescence quantum yield
Procedure: Preferably, the fluorescence quantum yield of a compound according to the invention is 0.1 to 0.95, more preferably 0.5 to 0.9. Fluorescence quantum yields are preferably determined at 25° C. in dilute aqueous or ethanolic solutions with an extinction of 0.1 using a Hamamatsu Absolute Photoluminescence Quantum Yield Measurement System C-9920, wherein the dilute aqueous solutions are preferably phosphate-buffered salt solutions (PBS buffer; about 100 mM sodium chloride and 100 mM total phosphate) and have a pH of 7.5. The compounds thus complement the already commercially available dyes with high Stokes Shift or represent better fluorescent alternatives.

[2] = Fluorescence emission (emission maximum)
Procedure: (§1) Depending on the basic structure and substitution, the absorption maxima lie in the entire range of visible light, with a focus at 500-530 nm. The compounds show a high Stokes shift in the range of 80 nm. The absorption is measured, for example, at 25° C. in aqueous or ethanolic solutions with an extinction of 1.0 using a Specord 205 from Analytik Jena, wherein the aqueous solutions are preferably phosphate-buffered salt solutions (PBS buffer; approx. 100 mM sodium chloride and 100 mM total phosphate) and have a pH of 7.5. For example, the emission is measured at 25° C. in dilute aqueous or ethanolic solutions with an extinction of 0.1 using a FP-6600 spectrofluorometer from Jasco, wherein the dilute aqueous solutions are preferably phosphate-buffered salt solutions (PBS buffer; about 100 mM sodium chloride and 100 mM total phosphate) and have a pH of 7.5.

[3] = UV-Vis absorption (absorption maximum, extinction coefficient)
Procedure: as §1

[4] = Fluorescence emission (emission maximum); conditions: in buffer pH 9

Row | SMILES | QY ([1]; in PBS) | QY ([1]; in ethanol) | λem ([2]; in PBS) [nm] | λem ([2]; in ethanol) [nm] | ε ([3]; UV-Vis in PBS) | λmax ([3]; UV-Vis in PBS) [nm] | ε ([3]; UV-Vis in ethanol) | λmax ([3]; UV-Vis in ethanol) [nm] | λem [4] [nm] | λmax ([3]; UV-Vis in buffer pH 9) [nm]
1 | CCN(CCCCCC(=O)O)c1ccc2cc3c([o+]c2c1)C=C(N(C)c1ccc(S(=O)(=O)[O-])cc1)CC3(C)C [Compound 12, 4-[[6-[5-carboxypentyl(ethyl)amino]-1,1-dimethyl-2H-xanthene-10-ium-3-yl]-methyl-amino]benzenesulfonate] | 0.26 | 0.51 | 619 | 610 | 45,000 l/mol*cm | 532 | 50,000 l/mol*cm | 533 |  | 
2 | CC1(C)CC(=O)C(S(=O)(=O)[O-])=C2Oc3cc(O)ccc3C=C21.[Na+] [Compound 39, 6-hydroxy-1,1-dimethyl-3-oxo-2H-xanthene-4-sulfonate Sodium Salt] |  |  | 485 |  |  | 409 |  |  | 536 | 462
3 | CC1(C)CC(=O)C(S(=O)(=O)[O-])=C2Oc3cc(N(CCCCCC(=O)O)CCCS(=O)(=O)[O-])ccc3C=C21.[Na+].[Na+] [Compound 38, 6-[5-carboxypentyl(3-sulfonatopropyl)amino]-1,1-dimethyl-3-oxo-2H-xanthene-4-sulfonate di-sodium SALT] | 0.78 | 0.91 | 557 | 544 | 28,000 l/mol*cm | 479 | 31,000 l/mol*cm | 463 |  | 
4 | CC1=CC(C)(C)N(CCCS(=O)(=O)[O-])c2cc3[o+]c4c(cc3cc21)C(C)(C)CC(N(C)CCCC(=O)O)=C4 [Compound 23, 3-[9-[3-carboxypropyl(methyl)amino]-2,2,4,7,7-pentamethyl-8H-chromeno[3,2-g]quinolin-11-ium-1-yl]propane-1-sulfonate] | 0.58 | 0.88 | 600 | 600 | 45,400 l/mol*cm | 527 | 55,000 l/mol*cm | 542 |  | 
5 | CCN(CCCCCC(=O)O)c1ccc2cc3c([o+]c2c1)C=C(NCCCS(=O)(=O)[O-])CC3(C)C [Compound 8, 3-[[6-[5-Carboxypentyl(ethyl)amino]-1,1-dimethyl-2H-xanthene-10-ium-3-yl]amino]propane-1-sulfonate] | 0.58 | 0.84 | 578 | 571 | 38,500 l/mol*cm | 509 | 41,600 l/mol*cm | 511 |  | 
6 | CCN(CCCCCC(=O)O)c1ccc2c(c1)OC1=C(S(=O)(=O)[O-])C(=O)CC(C)(C)C1=C2.[Na+] [Compound 36, 6-[5-carboxypentyl(ethyl)amino]-1,1-dimethyl-3-oxo-2H-xanthene-4-sulfonate Sodium Salt] | 0.66 | 0.90 | 565 | 542 | 30,100 l/mol*cm | 482 | 25,000 l/mol*cm | 446 |  | 
7 | CCN(CC)c1ccc2cc3c([o+]c2c1)C=C(NCCCCCC(=O)O)CC3(C)C.[Cl-] [Compound 3, 6-[[6-(diethylamino)-1,1-dimethyl-2H-xanthene-10-ium-3-yl]amino]hexanoic Acid Chloride Salt] | 0.58 | 0.82 | 570 | 575 | 39,200 l/mol*cm | 505 | 32,500 l/mol*cm | 510 |  | 
8 | CC1(C)CC(NCCCS(=O)(=O)[O-])=Cc2[o+]c3cc(N(CCCCCC(=O)O)CCCS(=O)(=O)[O-])ccc3cc21.[Na+] [Compound 5, 3-[[6-[5-carboxypentyl(3-sulfonatopropyl)amino]-1,1-dimethyl-2H-xanthene-10-ium-3-yl]amino]propane-1-sulfonate Sodium Salt] | 0.72 | 0.87 | 572 | 570 | 45,000 l/mol*cm | 505 | 49,800 l/mol*cm | 512 |  | 
9 | CN(C1=Cc2[o+]c3cc(N(CCCCCC(=O)O)CCCS(=O)(=O)[O-])ccc3cc2C(C)(C)C1)c1ccccc1 [Compound 9, 3-[5-carboxypentyl-[8,8-dimethyl-6-(N-methylanilino)-7H-xanthene-10-ium-3-yl]amino]propane-1-sulfonate] | 0,24 | 0.47 | 600 | 601 | 39,000 l/mol*cm | 523 | 41,000 l/mol*cm | 531 |  | 
10 | CN(C1=Cc2[o+]c3cc(N(CCCCCC(=O)O)CCCS(=O)(=O)[O-])ccc3cc2C(C)(C)C1)c1ccc(S(=O)(=O)[O-])cc1.[Na+] [Compound 10, 4-[[6-[5-carboxypentyl(3-sulfonatopropyl)amino]-1,1-dimethyl-2H-xanthene-10-ium-3-yl]-methyl-amino]benzenesulfonate sodium Salt] | 0.35 | 0.57 | 612 | 609 | 44,000 l/mol*cm | 527 | 48,000 l/mol*cm | 533 |  | 
11 | CCN(CCCCCC(=O)O)c1ccc2cc3c([o+]c2c1)C(S(=O)(=O)[O-])=C(Nc1ccc(S(=O)(=O)[O-])cc1)CC3(C)C.[Na+] [Compound 14, 6-[5-carboxypentyl(ethyl)amino]-1,1-dimethyl-3-(4-sulfonatoanilino)-2H-xanthene-10-ium-4-sulfonate Sodium Salt] | 0.11 | 0.61 | 625 | 616 | 40,100 l/mol*cm | 545 | 45,300 l/mol*cm | 542 |  | 
12 | CCN(CCCCCC(=O)O)c1ccc2c(c1)OC1=CC(=O)CC(C)(C)C1=C2 [Compound 35, 6-[(8,8-dimethyl-6-oxo-7H-xanthene-3-yl)-ethyl-amino]hexanoic Acid] |  |  | 559 | 540 | 24,200 l/mol*cm | 457 | 25,300 l/mol*cm | 441 |  | 
13 | CCN(CCCCCC(=O)O)c1ccc2cc3c([o+]c2c1)C=C(N(C)c1ccccc1)CC3(C)C.[Cl-] [Compound 11, 6-[[8,8-dimethyl-6-(N-methylanilino)-7H-xanthene-10-ium-3-yl]-ethyl-amino]hexanoic Acid Chloride Salt] | 0.27 | 0.42 | 606 | 601 | 39,000 l/mol*cm | 526 | 44,000 l/mol*cm | 531 |  | 
14 | CCN(CC)c1ccc2c(c1)OC1=Cc3[o+]c4cc(N(CC)CC)ccc4c(-c4ccccc4C(=O)O)c3C(C)(C)C1=C2.[Cl-] [Compound 46, 2-[3,9-bis(diethylamino)-13,13-dimethyl-chromeno[3,2-b]xanthene-5-ium-14-yl]benzoic Acid Chloride Salt] |  |  | 711 | 710 | 42000 L/mol/cm | 663 | 60,000 l/mol*cm | 664 |  | 
15 | CCN(CCCCCC(=O)O)c1ccc2cc3c([o+]c2c1)C=C(Nc1cccc(N(C)C)c1)CC3(C)C.[Cl-] [Compound 26, 6-[[6-[3-(dimethylamino)anilino]-8,8-dimethyl-7H-xanthene-10-ium-3-yl]-ethyl-amino]hexanoic Acid Chloride Salt] |  |  |  | 573 |  |  | 34,000 l/mol*cm | 531 |  | 
16 | CCN(CCCCCC(=O)O)c1ccc2cc3c([o+]c2c1)C=C(N(Cc1ccccn1)Cc1ccccn1)CC3(C)C.[Cl-] [Compound 28, 6-[[6-[bis(2-pyridylmethyl)amino]-8,8-dimethyl-7H-xanthene-10-ium-3-yl]-ethyl-amino]hexanoic Acid Chloride Salt] |  |  |  | 593 |  |  | 28,000 l/mol*cm | 531 |  | 
17 | CC1(C)CC(NCCCS(=O)(=O)[O-])=Cc2[o+]c3cc(N(CCCCCC(=O)ON4C(=O)CCC4=O)CCCS(=O)(=O)[O-])ccc3cc21.[Na+] [Compound 6, 3-[[6-[[6-(2,5-dioxopyrrolidine-1-yl)oxy-6-oxo-hexyl]-(3-sulfonatopropyl)amino]-1,1-dimethyl-2H-xanthene-10-ium-3-yl]amino]propane-1-sulfonate Sodium Salt] |  |  |  | 570 |  |  | 44,000 l/mol*cm | 512 |  | 
18 | CCOC1=Cc2[o+]c3cc(N(CC)CC)ccc3cc2C(C)(C)C1.F[B-](F)(F)F [Compound 2, 6-ethoxy-N,N-diethyl-8,8-dimethyl-7H-xanthene-10-ium-3-amine tetrafluoroborate] |  |  |  | 605 |  |  |  | 531 |  | 
